In PubChem BioAssay (NCI) one finds GI50 and TGI data, which are given here for 8 compounds.

For orientation: GI50 means the concentration that inhibits growth by half. The TGI is the concentration giving total growth inhibition. Read a high TGI as lower sensitivity of the cells.

Several values for one entry are separate records, joined by “and”; a condition that tells them apart may be missing. Equal entries are not always repeated.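 Results reflect a 48-hour exposure of cells in 96-well plates to compound at five concentrations. GI50 = concentration required for 50% inhibition of growth. Definition used: TGI = concentration required for complete inhibition of growth.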 Bounds are passed on as bounds.

Test systems include K-562 leukemia; UACC-62 melanoma; LOX IMVI melanoma; NCI-H522 lung; HCT-116 colon; 786-0 renal; RPMI-8226 leukemia; SR leukemia; HOP-62 NSCLC; IGROV1 ovarian.
Common to all, as to assay: DTP human tumour cell line panel, 48 h

As to `CCCC(=O)Nc1cn(COC)c(C(=O)N2C[C@H]3C[C@@]34C2=CC(=O)c2[nH]cc(C)c24)n1`, the GI50 in the assay on K-562 leukemia is 7.41 µM; with LOX IMVI melanoma, 3.13 µM; in the assay on NCI-H522 lung it was 1.84 µM; with HCT-116 colon, 2.32 µM; in the assay with 786-0 renal, 1.98 µM; with RPMI-8226 leukemia, 3.21 µM. Moreover, the GI50 is 4.52 µM with HOP-62 NSCLC and 6.68 µM in the assay on IGROV1 ovarian. Also, the TGI in the assay with K-562 leukemia was 50 µM and > 100 µM; with UACC-62 melanoma, 14.5 µM and 26.1 µM; in the assay with LOX IMVI melanoma it was 35.4 µM and > 100 µM; in the assay with NCI-H522 lung it was 8.62 µM and 14.7 µM; in the assay with HCT-116 colon, 50 µM and 12 µM; in the assay with RPMI-8226 leukemia it was 22.8 µM and > 100 µM. In addition, the TGI in the assay on SR leukemia is over 100 µM; in the assay on HOP-62 NSCLC, 50 µM and > 100 µM; in the assay with IGROV1 ovarian, 50 µM and > 100 µM.
`COc1ccc(-c2cn(-c3cc(OC)c(OC)c(OC)c3)c(=O)n2-c2ccccc2)cc1`: the GI50 with K-562 leukemia is over 100 µM; in the assay on UACC-62 melanoma, 53 µM; in the assay on LOX IMVI melanoma, over 100 µM; in the assay on NCI-H522 lung it was 66.7 µM; in the assay on HCT-116 colon, over 100 µM; in the assay with 786-0 renal, 38.9 µM. Further, the GI50 in the assay with RPMI-8226 leukemia was over 100 µM; with SR leukemia, 50.1 µM; in the assay on HOP-62 NSCLC, 66.2 µM; in the assay with IGROV1 ovarian it was 27.6 µM. The TGI with K-562 leukemia, in the assay with UACC-62 melanoma, with LOX IMVI melanoma, with NCI-H522 lung, with HCT-116 colon and with 786-0 renal was over 100 µM each time. For the same compound, the concentration for total growth inhibition (TGI) in the assay on RPMI-8226 leukemia, in the assay on SR leukemia, with HOP-62 NSCLC and in the assay with IGROV1 ovarian was over 100 µM throughout.
`O=C1[C@H]2ON(c3ccccc3)C(c3cccc([N+](=O)[O-])c3)[C@H]2C(=O)N1c1ccc(Cc2ccc(N3C(=O)[C@@H]4ON(c5ccccc5)C(c5cccc([N+](=O)[O-])c5)[C@@H]4C3=O)cc2)cc1` (some centres not stated): the TGI in the assay with K-562 leukemia, in the assay with UACC-62 melanoma, in the assay on LOX IMVI melanoma, with NCI-H522 lung, with HCT-116 colon and in the assay on 786-0 renal was over 100 µM in each case. Further, the concentration for total growth inhibition (TGI) in the assay on RPMI-8226 leukemia, in the assay with SR leukemia, in the assay with HOP-62 NSCLC and in the assay on IGROV1 ovarian was over 100 µM throughout.
`O=C(Nc1nc2ccc(F)cc2s1)c1cccnc1Nc1ccc(Cl)cc1Cl`: the GI50 in the assay with K-562 leukemia was 1.93 µM; with UACC-62 melanoma, 2.57 µM; in the assay on LOX IMVI melanoma, 3.62 µM; with NCI-H522 lung, 2.53 µM; in the assay with HCT-116 colon it was 2.07 µM; in the assay on 786-0 renal, 3.28 µM. In addition, the GI50 in the assay on RPMI-8226 leukemia is 1.49 µM; in the assay with SR leukemia, 2.22 µM; in the assay with HOP-62 NSCLC it was 3.05 µM; with IGROV1 ovarian, 3.66 µM. For the same compound, the TGI was 9.26 µM with K-562 leukemia; 17.2 µM with UACC-62 melanoma; 14.6 µM with LOX IMVI melanoma; over 25.6 µM in the assay on NCI-H522 lung; 8.01 µM with HCT-116 colon; 12.2 µM with 786-0 renal. The TGI was 9.07 µM with RPMI-8226 leukemia, 8.23 µM in the assay with SR leukemia, 12.8 µM in the assay on HOP-62 NSCLC and over 23.6 µM in the assay on IGROV1 ovarian.
Take `COc1cc(/C=C2\C(=O)Nc3ccc(Br)cc32)cc(OC)c1OC`: the GI50 is 1.11 µM with K-562 leukemia; 5.96 µM with UACC-62 melanoma; 10.6 µM in the assay with LOX IMVI melanoma; 3.29 µM in the assay on NCI-H522 lung; 4.86 µM with HCT-116 colon; 27.2 µM with 786-0 renal. The GI50 in the assay on RPMI-8226 leukemia was 1.31 µM; in the assay on SR leukemia, 0.304 µM; in the assay on HOP-62 NSCLC, 20.3 µM; with IGROV1 ovarian it was 2.29 µM. In addition, the TGI was over 100 µM in the assay on K-562 leukemia; over 100 µM with UACC-62 melanoma; over 100 µM with LOX IMVI melanoma; over 50.9 µM in the assay on NCI-H522 lung; over 100 µM with HCT-116 colon; over 100 µM with 786-0 renal. The TGI with RPMI-8226 leukemia is over 41.8 µM; in the assay on SR leukemia it was 3.08 µM; in the assay on HOP-62 NSCLC it was 81.4 µM; in the assay with IGROV1 ovarian it was 17 µM.
Consider `O=C(O)C(O)c1ccc(F)cc1` (configuration not stated), for which the TGI in the assay with K-562 leukemia, in the assay on UACC-62 melanoma, in the assay on LOX IMVI melanoma, with NCI-H522 lung, in the assay on HCT-116 colon and in the assay on 786-0 renal was over 100 µM each time. In addition, the TGI in the assay with RPMI-8226 leukemia, in the assay with SR leukemia, in the assay on HOP-62 NSCLC and with IGROV1 ovarian was over 100 µM in each case.
With `COc1ccc2c(c1)c(-c1cc(-c3cn(C)c4ccc(OC)cc34)[nH]n1)cn2C`, the GI50 in the assay with K-562 leukemia, with UACC-62 melanoma, in the assay on LOX IMVI melanoma, in the assay on NCI-H522 lung, with HCT-116 colon and in the assay with 786-0 renal was over 100 µM in each case. For the same compound, the GI50 with RPMI-8226 leukemia, with SR leukemia, in the assay on HOP-62 NSCLC and in the assay on IGROV1 ovarian was over 100 µM each time. Moreover, the TGI in the assay with K-562 leukemia, with UACC-62 melanoma, in the assay with LOX IMVI melanoma, with NCI-H522 lung, in the assay with HCT-116 colon and with 786-0 renal was over 100 µM in each case. The TGI in the assay on RPMI-8226 leukemia, with SR leukemia, in the assay on HOP-62 NSCLC and with IGROV1 ovarian was over 100 µM each time.
As for `Cc1nc2cc(Nc3nc(Nc4ccc(F)cc4)nc(-c4ccc(Cl)cc4)n3)ccc2n1Cc1ccccc1`, the GI50 was 5.13 µM in the assay on K-562 leukemia; 6.3 µM with UACC-62 melanoma; 12.6 µM with LOX IMVI melanoma; 10.8 µM with NCI-H522 lung; 5.04 µM in the assay with HCT-116 colon; 6.48 µM in the assay with 786-0 renal. For the same compound, the GI50 is 2.62 µM in the assay on RPMI-8226 leukemia, 2.88 µM in the assay with SR leukemia, 7.36 µM in the assay with HOP-62 NSCLC and 5.9 µM in the assay with IGROV1 ovarian. Moreover, the TGI was over 100 µM in the assay on K-562 leukemia; over 100 µM in the assay with UACC-62 melanoma; over 100 µM with LOX IMVI melanoma; 68.2 µM in the assay with NCI-H522 lung; over 100 µM with HCT-116 colon; 52.3 µM in the assay with 786-0 renal. For the same compound, the TGI in the assay with RPMI-8226 leukemia is over 100 µM; in the assay with SR leukemia, 9.55 µM; with HOP-62 NSCLC, 27.3 µM; in the assay on IGROV1 ovarian, over 100 µM.
